Source: patent US10131657B2, “Bromodomain inhibitors” (AbbVie Inc., priority 2013, dated 2018)

These molecules were tested on breast cancer cell line MX-1 (assay: MX-1 cell line proliferation assay, Method A). Details: Homo sapiens, MX1; MX-1 cells, 96-well, 72 hours, Cell Titer Glo; read-out: Cellular proliferation: EC50 Method A.
Format: cell-based
Experimental: The impact of compounds of the Examples on cancer cell proliferation was determined using the breast cancer cell line MX-1 (ATCC) in a 3-day proliferation assay and the data are reported in Table 1.
MX-1 cells were maintained in RPMI 1640 medium (Sigma) supplemented with 10% FBS at 37° C. and an atmosphere of 5% CO2. For compound testing, MX-1 cells were plated in 96-well black bottom plates at a density of 5000 cells/well in 90 μL of culture media and incubated at 370 overnight to allow cell adhesion and spreading. Compound dilution series were prepared in DMSO via a 3-fold serial dilution from 3 mM to 0.1 μM. The DMSO dilution series were then diluted 1:100 in phosphate buffered saline, and 10 μL of the resulted solution were added to the appropriate wells of the MX-1 cell plate. The final compound concentrations in the wells were 3, 1, 0.3, 0.1, 0.03, 0.01, 0.003, 0.001, 0.0003 and 0.0001 μM.
Luminescence readings from the Cell Titer Glo assay were normalized to the DMSO treated cells and analyzed using the GraphPad Prism software with sigmoidal curve fitting to obtain ECs50s. The minimum significant ratio (MSR) was determined to evaluate assay reproducibility (Eastwood et al., (2006) J Biomol Screen, 11: 253-261).

Row | Structure (SMILES) | EC50 [nM]
1 | Cn1cc(-c2cc(S(C)(=O)=O)ccc2Oc2cccc(NS(=O)(=O)Cc3ccccc3)c2)c2cc[nH]c2c1=O [Example 38, N-{3-[2-(6-methyl-7-oxo-6,7-dihydro-1H-pyrrolo[2,3-c]pyridin-4-yl)-4-(methylsulfonyl)phenoxy]phenyl}-1-phenylmethanesulfonamide] | 103
2 | COc1ccc(S(=O)(=O)Nc2cccc(Oc3ccc(S(C)(=O)=O)cc3-c3cn(C)c(=O)c4[nH]ccc34)c2)cc1 [Example 39, 4-methoxy-N-{3-[2-(6-methyl-7-oxo-6,7-dihydro-1H-pyrrolo[2,3-c]pyridin-4-yl)-4-(methylsulfonyl)phenoxy]phenyl}benzenesulfonamide] | 97.4
3 | Cn1cc(-c2cc(S(C)(=O)=O)ccc2Oc2cccc(NS(=O)(=O)c3cccc(F)c3)c2)c2cc[nH]c2c1=O [Example 40, 3-fluoro-N-{3-[2-(6-methyl-7-oxo-6,7-dihydro-1H-pyrrolo[2,3-c]pyridin-4-yl)-4-(methylsulfonyl)phenoxy]phenyl}benzenesulfonamide] | 143
4 | COc1cccc(S(=O)(=O)Nc2cccc(Oc3ccc(S(C)(=O)=O)cc3-c3cn(C)c(=O)c4[nH]ccc34)c2)c1 [Example 42, 3-methoxy-N-{3-[2-(6-methyl-7-oxo-6,7-dihydro-1H-pyrrolo[2,3-c]pyridin-4-yl)-4-(methylsulfonyl)phenoxy]phenyl}benzenesulfonamide] | 157
5 | Cn1cc(-c2cc(S(C)(=O)=O)ccc2Oc2cccc(NS(=O)(=O)c3ccc([N+](=O)[O-])cc3)c2)c2cc[nH]c2c1=O [Example 43, N-{3-[2-(6-methyl-7-oxo-6,7-dihydro-1H-pyrrolo[2,3-c]pyridin-4-yl)-4-(methylsulfonyl)phenoxy]phenyl}-4-nitrobenzenesulfonamide] | 451
6 | CC(=O)c1ccc(S(=O)(=O)Nc2cccc(Oc3ccc(S(C)(=O)=O)cc3-c3cn(C)c(=O)c4[nH]ccc34)c2)cc1 [Example 44, 4-acetyl-N-{3-[2-(6-methyl-7-oxo-6,7-dihydro-1H-pyrrolo[2,3-c]pyridin-4-yl)-4-(methylsulfonyl)phenoxy]phenyl}benzenesulfonamide] | 391
7 | CC(C)c1ccc(S(=O)(=O)Nc2cccc(Oc3ccc(S(C)(=O)=O)cc3-c3cn(C)c(=O)c4[nH]ccc34)c2)cc1 [Example 46, N-{3-[2-(6-methyl-7-oxo-6,7-dihydro-1H-pyrrolo[2,3-c]pyridin-4-yl)-4-(methylsulfonyl)phenoxy]phenyl}-4-(propan-2-yl)benzenesulfonamide] | 43.1
8 | Cn1cc(-c2cc(S(C)(=O)=O)ccc2Oc2cccc(NS(=O)(=O)c3cccc(OC(F)F)c3)c2)c2cc[nH]c2c1=O [Example 48, 3-(difluoromethoxy)-N-{3-[2-(6-methyl-7-oxo-6,7-dihydro-1H-pyrrolo[2,3-c]pyridin-4-yl)-4-(methylsulfonyl)phenoxy]phenyl}benzenesulfonamide] | 172
9 | Cn1cc(-c2cc(S(C)(=O)=O)ccc2Oc2cccc(NS(=O)(=O)C3CC3)c2)c2cc[nH]c2c1=O [Example 49, N-{3-[2-(6-methyl-7-oxo-6,7-dihydro-1H-pyrrolo[2,3-c]pyridin-4-yl)-4-(methylsulfonyl)phenoxy]phenyl}cyclopropanesulfonamide] | 73.8
10 | Cc1cccc(S(=O)(=O)Nc2cccc(Oc3ccc(S(C)(=O)=O)cc3-c3cn(C)c(=O)c4[nH]ccc34)c2)c1 [Example 50, 3-methyl-N-{3-[2-(6-methyl-7-oxo-6,7-dihydro-1H-pyrrolo[2,3-c]pyridin-4-yl)-4-(methylsulfonyl)phenoxy]phenyl}benzenesulfonamide] | 40.5
11 | Cn1cc(-c2cc(S(C)(=O)=O)ccc2Oc2cccc(NS(=O)(=O)c3cccc([N+](=O)[O-])c3)c2)c2cc[nH]c2c1=O [Example 51, N-{3-[2-(6-methyl-7-oxo-6,7-dihydro-1H-pyrrolo[2,3-c]pyridin-4-yl)-4-(methylsulfonyl)phenoxy]phenyl}-3-nitrobenzenesulfonamide] | > 1000
12 | Cc1cc(F)ccc1S(=O)(=O)Nc1cccc(Oc2ccc(S(C)(=O)=O)cc2-c2cn(C)c(=O)c3[nH]ccc23)c1 [Example 52, 4-fluoro-2-methyl-N-{3-[2-(6-methyl-7-oxo-6,7-dihydro-1H-pyrrolo[2,3-c]pyridin-4-yl)-4-(methylsulfonyl)phenoxy]phenyl}benzenesulfonamide] | 38.6
13 | Cn1cc(-c2cc(S(C)(=O)=O)ccc2Oc2cccc(NS(=O)(=O)c3ccc(S(C)(=O)=O)cc3)c2)c2cc[nH]c2c1=O [Example 54, N-{3-[2-(6-methyl-7-oxo-6,7-dihydro-1H-pyrrolo[2,3-c]pyridin-4-yl)-4-(methylsulfonyl)phenoxy]phenyl}-4-(methylsulfonyl)benzenesulfonamide] | > 1000
14 | Cn1cc(-c2cc(S(C)(=O)=O)ccc2Oc2cccc(NS(=O)(=O)c3ccccc3C#N)c2)c2cc[nH]c2c1=O [Example 55, 2-cyano-N-{3-[2-(6-methyl-7-oxo-6,7-dihydro-1H-pyrrolo[2,3-c]pyridin-4-yl)-4-(methylsulfonyl)phenoxy]phenyl}benzenesulfonamide] | 393
15 | Cn1cc(-c2cc(S(C)(=O)=O)ccc2Oc2cccc(NS(=O)(=O)c3cccc(C#N)c3)c2)c2cc[nH]c2c1=O [Example 57, 3-cyano-N-{3-[2-(6-methyl-7-oxo-6,7-dihydro-1H-pyrrolo[2,3-c]pyridin-4-yl)-4-(methylsulfonyl)phenoxy]phenyl}benzenesulfonamide] | > 1000
16 | Cn1cc(-c2cc(S(C)(=O)=O)ccc2Oc2cccc(NS(=O)(=O)c3ccc(F)cc3Cl)c2)c2cc[nH]c2c1=O [Example 58] | 152
17 | Cn1cc(-c2cc(S(C)(=O)=O)ccc2Oc2cccc(NCc3cccc(C#N)c3)c2)c2cc[nH]c2c1=O [Example 60, 3-[({3-[2-(6-methyl-7-oxo-6,7-dihydro-1H-pyrrolo[2,3-c]pyridin-4-yl)-4-(methylsulfonyl)phenoxy]phenyl}amino)methyl]benzonitrile] | 64.1
18 | Cn1cc(-c2cc(S(C)(=O)=O)ccc2Oc2cccc(NCc3ccc(C#N)cc3)c2)c2cc[nH]c2c1=O [Example 61, 4-[({3-[2-(6-methyl-7-oxo-6,7-dihydro-1H-pyrrolo[2,3-c]pyridin-4-yl)-4-(methylsulfonyl)phenoxy]phenyl}amino)methyl]benzonitrile] | 43
19 | Cn1cc(-c2cc(S(C)(=O)=O)ccc2Oc2cccc(NCc3ccc(F)cc3)c2)c2cc[nH]c2c1=O [Example 62, 4-[2-{3-[(4-fluorobenzyl)amino]phenoxy}-5-(methylsulfonyl)phenyl]-6-methyl-1,6-dihydro-7H-pyrrolo[2,3-c]pyridin-7-one] | 51.1
20 | COCCNc1cccc(Oc2ccc(S(C)(=O)=O)cc2-c2cn(C)c(=O)c3[nH]ccc23)c1 [Example 64, 4-[2-{3-[(2-methoxyethyl)amino]phenoxy}-5-(methylsulfonyl)phenyl]-6-methyl-1,6-dihydro-7H-pyrrolo[2,3-c]pyridin-7-one] | 52.6
21 | Cn1cc(-c2cc(S(C)(=O)=O)ccc2Oc2cccc(NCC3CCCO3)c2)c2cc[nH]c2c1=O (stereo not drawn) [Example 65, 6-methyl-4-[5-(methylsulfonyl)-2-{3-[(tetrahydrofuran-2-ylmethyl)amino]phenoxy}phenyl]-1,6-dihydro-7H-pyrrolo[2,3-c]pyridin-7-one] | 40
22 | COc1cccc(CNc2cccc(Oc3ccc(S(C)(=O)=O)cc3-c3cn(C)c(=O)c4[nH]ccc34)c2)c1 [Example 66, 4-[2-{3-[(3-methoxybenzyl)amino]phenoxy}-5-(methylsulfonyl)phenyl]-6-methyl-1,6-dihydro-7H-pyrrolo[2,3-c]pyridin-7-one] | 54.7
23 | Cn1cc(-c2cc(S(C)(=O)=O)ccc2Oc2cccc(NCc3ccccc3F)c2)c2cc[nH]c2c1=O [Example 67, 4-[2-{3-[(2-fluorobenzyl)amino]phenoxy}-5-(methylsulfonyl)phenyl]-6-methyl-1,6-dihydro-7H-pyrrolo[2,3-c]pyridin-7-one] | 50.6
24 | Cn1cc(-c2cc(S(C)(=O)=O)ccc2Oc2cccc(NCc3cccc(OC(F)(F)F)c3)c2)c2cc[nH]c2c1=O [Example 69, 6-methyl-4-[5-(methylsulfonyl)-2-(3-{[3-(trifluoromethoxy)benzyl]amino}phenoxy)phenyl]-1,6-dihydro-7H-pyrrolo[2,3-c]pyridin-7-one] | 93.3
25 | Cn1cc(-c2cc(S(C)(=O)=O)ccc2Oc2cccc(NCc3cc(F)cc(F)c3)c2)c2cc[nH]c2c1=O [Example 73, 4-[2-{3-[(3,5-difluorobenzyl)amino]phenoxy}-5-(methylsulfonyl)phenyl]-6-methyl-1,6-dihydro-7H-pyrrolo[2,3-c]pyridin-7-one] | 62.4
26 | CN(C)CCCOc1ccc(CNc2cccc(Oc3ccc(S(C)(=O)=O)cc3-c3cn(C)c(=O)c4[nH]ccc34)c2)cc1 [Example 74, 4-{2-[3-({4-[3-(dimethylamino)propoxy]benzyl}amino)phenoxy]-5-(methylsulfonyl)phenyl}-6-methyl-1,6-dihydro-7H-pyrrolo[2,3-c]pyridin-7-one] | 45.1
27 | CN(C)c1cccc(CNc2cccc(Oc3ccc(S(C)(=O)=O)cc3-c3cn(C)c(=O)c4[nH]ccc34)c2)c1 [Example 75, 4-[2-(3-{[3-(dimethylamino)benzyl]amino}phenoxy)-5-(methylsulfonyl)phenyl]-6-methyl-1,6-dihydro-7H-pyrrolo[2,3-c]pyridin-7-one] | 112
